Laboratory results reported in patent US9951128B2, “Caninized anti-NGF antibodies and methods thereof” (ZOETIS SERVICES LLC, priority 2012, dated 2018).

Assay: Mean group body weight in the rat MIA study
Assay type: in vivo, Rat Ola Wistar
Conditions: morphine 10 mg/kg SC, mAbs 8 mg/kg SC
Description: Mean group body weight for all groups (g).

CN1CC[C@]23c4c5ccc(O)c4O[C@H]2[C@@H](O)C=C[C@H]3[C@H]1C5 [Morphine]
Mean group body weight, Baseline: 178.5 g | Mean group body weight, Day 7: 256.2 g | Mean group body weight, Day 14: 285.1 g | Mean group body weight, Day 21: 300.6 g | Mean group body weight, Day 27: 316 g
